Assay [1] in a line: Weight gain and feed efficiency of broiler chicks (Example 6, Table IX). It is filed as in vivo, Peterson X Arbor Acres chicks. The conditions noted are these: 200 PPM in diet.
Assay [2] is described as follows: Weight gains and feed efficiency in broiler chicks treated with E19020 alpha (Table IX A). The assay is classed as in vivo. The conditions noted are these: 200 PPM. On the procedure: Five male and five female one day old Peterson X Arbor Acres chicks are allotted to starter battery cages by weight. Cages are randomized to treatment groups with seven replicates per treatment. […] The positive standard is penicillin at 200 ppm. Diets are prepared weekly.

The subject of assay [3] is In Vitro Rumen Fermentation. Nature of the assay: Propionate enhancement activity during in vitro rumen fermentation. The assay is classed as cell-based, steer. The conditions noted are these: for A:P: acetate/propionate ratio. On the procedure: The drugs are dissolved or suspended (sonified if necessary) in a 0.1% Tween 20-ethanol-water vehicle and 25-50 ul is added to the incubation. The reaction is terminated with 6N HCl and centrifuged at 20,000 x g. Alliquots of the superinatant are analyzed for volatile fatty acid (VFA) content by gas-liquid chromatography.

Assay [4] has as its system Mycoplasma gallisepticum "R". Nature of the assay: Minimum inhibitory concentration assay for Mycoplasma gallisepticum (microdilution, Table VII). The conditions noted are these: Mycoplasmoides gallisepticum. (In broth dilution the organism is exposed to a series of concentrations in liquid medium.)
For assay [5], the system named is Pasteurella haemolytica 30660. Nature of the assay: Pasteurella disk test (primary in vitro disk diffusion test). To be noted: Mannheimia haemolytica; disks soaked in 2.5 mg/ml solution; strain 30660. It is filed as cell-based.
Assay [6] has as its system Pasteurella multocida 31081B. The description is as above. The conditions noted are these: Pasteurella multocida, 31081B, read-out: ZONE SIZE.
The subject of assay [7] is Treponema hyodysenteriae. The assay can be described thus: T. hyodysenteriae disk test (primary in vitro disk diffusion test). To be noted: Brachyspira hyodysenteriae.
Assay [8] relates to Treponema hyodysenteriae. Nature of the assay: Minimum inhibitory concentration by microdilution (Table VII). It is filed as cell-based. To be noted: Brachyspira hyodysenteriae, read-out: MIC.
Where [9] appears, read: ATCC27164, strain B78 (ATCC 27164).
The mark [10] stands for this setting: ATCC31212, strain B204 (ATCC 31212).

Values after ≈ are worked out from the molar mass of the structure shown. Like-named read-outs stand apart in the source and are kept apart here. Marks after values point to notes of the source that are not given here.

In the case of Penicillin [reference compound], in assay [1], the “Wg Gains And Feed Efficiency % Improvement Over Controls COMBINED” value was 3.5%, the “Wg Gains And Feed Efficiency % Improvement Over Controls FEMALES” value came out at 4.2% and the “Wg Gains And Feed Efficiency % Improvement Over Controls MALES” value stood at 2.4%. In assay [1] (control 1.41), the “Wg Gains And Feed Efficiency % Improvement Over Controls FEED/GAIN” value was 1.35**. Besides, in assay [2], the “FEED/GAIN % I[…] CONTROLS 0-3 WEEKS” value is 3.5%, the “FEED/GAIN % I[…] CONTROLS 0-7 WEEKS” value is given as 6.0%, the “WEIGHT GAIN % I[…] CONTROLS 0-3 WEEKS” value came to 4.9% and the “WEIGHT GAIN % I[…] CONTROLS 0-7 WEEKS” value was found to be 3.4%. In assay [2] (control 1.43), the “FEED/GAIN 0-3 WEEKS” value is 1.38**. Also, in assay [2] (control 1.99), the “FEED/GAIN 0-7 WEEKS” value is listed as 1.87**. In assay [2] (control 608), the “WEIGHT GAIN IN GRAMS 0-3 WEEKS” value is given as 638* GRAMS. The “WEIGHT GAIN IN GRAMS 0-7 WEEKS” value in assay [2] (control 2145) is 2217 GRAMS.
AVOPARCIN [reference compound]: the “A:P” value is reported as 2.38 in assay [3] (Table X, 1.0 PPM, control 2.65); 2.23 in assay [3] (Table X, 2.000 PPM, control 2.65); 2.12 in assay [3] (Table X, 4.0 PPM, control 2.65); 2.08 in assay [3] (Table X, 8.0 PPM, control 2.65); 2.02 in assay [3] (Table XI, 1.0 PPM, control 2.19); 1.98 in assay [3] (Table XI, 2.0 PPM, control 2.19). Besides, the “A:P” value in assay [3] (Table XI, 4.0 PPM, control 2.19) amounted to 1.90; in assay [3] (Table XI, 8.0 PPM, control 2.19), 1.88. Besides, the “TOTAL VFA” value turned out to be 159.4 mM in assay [3] (Table X, 1.0 PPM, control 159.4); 160.2 mM in assay [3] (Table X, 2.000 PPM, control 159.4); 158.9 mM in assay [3] (Table X, 4.0 PPM, control 159.4); 158.3 mM in assay [3] (Table X, 8.0 PPM, control 159.4); 126.9 mM in assay [3] (Table XI, 1.0 PPM, control 125.3); 125.3 mM in assay [3] (Table XI, 2.0 PPM, control 125.3). The “TOTAL VFA” value in assay [3] (Table XI, 4.0 PPM, control 125.3) was 121.3 mM; in assay [3] (Table XI, 8.0 PPM, control 125.3), 119.4 mM.
Consider `CC[C@H]1OC(=O)C[C@@H](O)[C@H](C)[C@@H](O[C@@H]2O[C@H](C)[C@@H](O[C@H]3C[C@@](C)(O)[C@@H](O)[C@H](C)O3)[C@H](N(C)C)[C@H]2O)[C@@H](CC=O)C[C@@H](C)C(=O)/C=C/C(C)=C/[C@@H]1CO[C@@H]1O[C@H](C)[C@@H](O)[C@@H](OC)[C@H]1OC` [TYLOSIN, reference compound], for which the lowest concentration to inhibit growth in assay [4] (MIC) was 0.03 µg/mL (≈ 0.0327 µM).
For the molecule `CN(C)C1C(=O)C(C(N)=O)=C(O)C2(O)C(=O)C3=C(O)c4c(O)ccc(Cl)c4C(C)(O)C3CC12` (stereo not shown) [CTC, reference compound], the zone of inhibition at 2500 µg/mL in assay [5] is 11 mm; in assay [6], 25 mm; with Treponema hyodysenteriae [7] (ATCC27164, read-out: ZONE SIZE), 45 mm; in the assay with Treponema hyodysenteriae [7] (ATCC31212, read-out: ZONE SIZE), 37 mm. It took 0.5 µg/mL (≈ 1.04 µM) to inhibit growth in assay [4] (MIC).
With `C=C[C@]1(C)C[C@@H](OC(=O)CSCCN(CC)CC)[C@]2(C)[C@H](C)CC[C@]3(CCC(=O)[C@H]32)[C@@H](C)[C@@H]1O` [TIAMULIN, reference compound], the MIC in the assay on Treponema hyodysenteriae [8] (setting [9]) and in the assay with Treponema hyodysenteriae [8] (setting [10]) was 0.015 µg/mL (≈ 0.0304 µM) in each case. Also, the zone of inhibition at 2500 µg/mL with Treponema hyodysenteriae [7] (ATCC27164, read-out: ZONE SIZE) worked out at 67 mm; in the assay on Treponema hyodysenteriae [7] (ATCC31212, read-out: ZONE SIZE) it was 70 mm.
`COC(=O)N/N=C/c1c[n+]([O-])c2ccccc2[n+]1[O-]` [CARBADOX, reference compound]: the MIC (usually the least concentration at which growth counts as inhibited) in the assay with Treponema hyodysenteriae [8] (setting [9]) stood at 0.5 µg/mL (≈ 1.91 µM); in the assay on Treponema hyodysenteriae [8] (setting [10]), 0.25 µg/mL (≈ 0.953 µM).

Source of the values: patent publication EP0252380B1, “Antibiotic LL-E19020 alpha and beta” (AMERICAN CYANAMID COMPANY, priority 1986, dated 1988).
